The values below come from article PMC3639963, “A New Class of Small Molecule Inhibitor of BMP Signaling” (PLoS ONE, 2013).

Broadly, the inhibition is the relative decrease from the control value, in per cent.

Holding throughout (test): Nanosyn kinase profiling
Assay type in all cases: biochemical
What all share (conditions): read-out: Percentage inhibition; for inhibition at 0.1 µM: 0.1 µM inhibitor; for inhibition at 1 µM: 1 µM inhibitor

Experiment [1] concerns the target T1, AKT3 (Homo sapiens, UniProt Q9Y243).
T1 construct: purchased Nanosyn (enzymatic panel); SGC in-house recombinant human kinases (DSF panel); Invitrogen (ALK1-6)
Summed up: (§1)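 Percent inhibition of each kinase was measured with the inhibitor at 0.1 µM and at 1 µM, as part of a 200-kinase human selectivity panel.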

Experiment [2] deals with T2, ARK5 (Homo sapiens, UniProt O60285).
T2 construct: purchased Nanosyn (enzymatic panel); SGC in-house recombinant human kinases (DSF panel); Invitrogen (ALK1-6)
T2 sequence (O60285 1-661): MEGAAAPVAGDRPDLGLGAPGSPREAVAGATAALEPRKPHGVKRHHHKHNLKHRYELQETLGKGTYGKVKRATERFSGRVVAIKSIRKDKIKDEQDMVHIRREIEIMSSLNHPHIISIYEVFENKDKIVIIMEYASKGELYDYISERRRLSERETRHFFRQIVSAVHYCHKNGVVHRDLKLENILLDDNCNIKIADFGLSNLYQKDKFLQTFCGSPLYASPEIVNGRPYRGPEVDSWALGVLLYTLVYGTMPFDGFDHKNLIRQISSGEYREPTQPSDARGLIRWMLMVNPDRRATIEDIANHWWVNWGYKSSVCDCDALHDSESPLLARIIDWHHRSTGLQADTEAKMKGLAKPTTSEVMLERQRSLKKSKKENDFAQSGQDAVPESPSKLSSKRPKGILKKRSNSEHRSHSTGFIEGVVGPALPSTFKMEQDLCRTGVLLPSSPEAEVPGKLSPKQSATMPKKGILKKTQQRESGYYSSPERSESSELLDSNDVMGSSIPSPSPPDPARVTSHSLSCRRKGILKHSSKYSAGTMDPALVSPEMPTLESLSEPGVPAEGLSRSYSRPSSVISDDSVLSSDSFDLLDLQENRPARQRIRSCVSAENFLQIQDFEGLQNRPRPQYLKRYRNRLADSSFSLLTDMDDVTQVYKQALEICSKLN
Summed up: as §1

Experiment [3] addresses T3, DCAMKL2 (Homo sapiens, UniProt Q8N568).
T3 construct: purchased Nanosyn (enzymatic panel); SGC in-house recombinant human kinases (DSF panel); Invitrogen (ALK1-6)
T3 sequence (Q8N568 1-766): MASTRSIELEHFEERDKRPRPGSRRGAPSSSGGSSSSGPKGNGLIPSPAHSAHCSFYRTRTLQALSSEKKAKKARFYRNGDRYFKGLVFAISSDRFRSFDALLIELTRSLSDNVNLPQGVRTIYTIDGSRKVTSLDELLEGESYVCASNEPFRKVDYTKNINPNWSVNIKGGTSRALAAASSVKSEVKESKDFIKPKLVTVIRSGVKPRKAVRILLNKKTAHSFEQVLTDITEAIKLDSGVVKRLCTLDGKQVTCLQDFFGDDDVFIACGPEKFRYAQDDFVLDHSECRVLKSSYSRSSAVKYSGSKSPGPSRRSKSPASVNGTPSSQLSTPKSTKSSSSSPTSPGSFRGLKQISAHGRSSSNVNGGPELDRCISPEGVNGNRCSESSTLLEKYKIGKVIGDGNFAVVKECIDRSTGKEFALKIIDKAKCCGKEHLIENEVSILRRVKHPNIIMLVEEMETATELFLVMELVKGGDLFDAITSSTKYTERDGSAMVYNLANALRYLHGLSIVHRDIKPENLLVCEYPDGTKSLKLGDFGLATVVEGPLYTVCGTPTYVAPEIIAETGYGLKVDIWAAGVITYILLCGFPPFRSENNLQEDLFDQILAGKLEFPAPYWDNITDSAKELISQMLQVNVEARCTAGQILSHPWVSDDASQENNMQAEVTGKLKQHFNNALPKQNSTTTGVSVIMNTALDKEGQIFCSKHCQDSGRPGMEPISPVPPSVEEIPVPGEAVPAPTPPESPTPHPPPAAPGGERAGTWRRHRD
In outline: as §1

In experiment [4] the target is T4, PIM1 (Homo sapiens, UniProt P11309).
T4 construct: purchased Nanosyn (enzymatic panel); SGC in-house recombinant human kinases (DSF panel); Invitrogen (ALK1-6)
In outline: as §1

Experiment [5] deals with T5, PRKG2 (Homo sapiens, UniProt Q13237).
T5 construct: purchased Nanosyn (enzymatic panel); SGC in-house recombinant human kinases (DSF panel); Invitrogen (ALK1-6)
T5 sequence (Q13237 1-762): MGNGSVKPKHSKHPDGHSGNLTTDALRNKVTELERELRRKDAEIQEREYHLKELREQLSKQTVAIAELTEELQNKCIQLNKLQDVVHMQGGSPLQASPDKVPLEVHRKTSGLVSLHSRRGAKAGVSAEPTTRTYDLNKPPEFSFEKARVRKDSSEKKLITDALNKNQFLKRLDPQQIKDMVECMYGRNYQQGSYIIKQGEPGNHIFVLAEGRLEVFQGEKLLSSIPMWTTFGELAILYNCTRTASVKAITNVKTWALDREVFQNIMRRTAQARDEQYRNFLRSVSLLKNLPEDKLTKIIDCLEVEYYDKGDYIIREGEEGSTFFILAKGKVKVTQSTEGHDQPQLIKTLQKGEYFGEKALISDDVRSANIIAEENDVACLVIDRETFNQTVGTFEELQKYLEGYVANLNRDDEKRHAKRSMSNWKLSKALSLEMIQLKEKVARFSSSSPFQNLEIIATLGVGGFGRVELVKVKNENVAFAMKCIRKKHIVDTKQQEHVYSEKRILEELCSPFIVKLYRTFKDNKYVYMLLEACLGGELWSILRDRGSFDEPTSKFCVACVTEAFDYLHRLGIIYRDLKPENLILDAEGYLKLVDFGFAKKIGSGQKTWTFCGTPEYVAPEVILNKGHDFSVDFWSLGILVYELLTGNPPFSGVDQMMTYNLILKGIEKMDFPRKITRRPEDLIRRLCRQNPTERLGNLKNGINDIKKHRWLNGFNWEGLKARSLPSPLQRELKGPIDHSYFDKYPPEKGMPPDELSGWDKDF
Summed up:
as §1

T1 sequence (Q9Y243 whole entry): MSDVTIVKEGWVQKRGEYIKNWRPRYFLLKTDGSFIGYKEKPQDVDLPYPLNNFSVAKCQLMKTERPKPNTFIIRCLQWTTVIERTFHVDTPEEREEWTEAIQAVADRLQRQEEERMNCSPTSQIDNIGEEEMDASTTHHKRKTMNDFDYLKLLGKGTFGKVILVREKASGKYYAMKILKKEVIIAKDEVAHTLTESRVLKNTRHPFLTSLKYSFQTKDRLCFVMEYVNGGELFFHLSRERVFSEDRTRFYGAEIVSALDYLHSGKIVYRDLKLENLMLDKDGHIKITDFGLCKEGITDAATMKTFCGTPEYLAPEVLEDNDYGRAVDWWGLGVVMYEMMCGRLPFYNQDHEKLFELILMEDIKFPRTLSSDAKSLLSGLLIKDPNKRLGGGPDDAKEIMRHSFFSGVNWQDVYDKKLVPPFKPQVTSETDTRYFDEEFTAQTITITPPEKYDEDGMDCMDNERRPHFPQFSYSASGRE
T4 sequence (P11309 whole entry): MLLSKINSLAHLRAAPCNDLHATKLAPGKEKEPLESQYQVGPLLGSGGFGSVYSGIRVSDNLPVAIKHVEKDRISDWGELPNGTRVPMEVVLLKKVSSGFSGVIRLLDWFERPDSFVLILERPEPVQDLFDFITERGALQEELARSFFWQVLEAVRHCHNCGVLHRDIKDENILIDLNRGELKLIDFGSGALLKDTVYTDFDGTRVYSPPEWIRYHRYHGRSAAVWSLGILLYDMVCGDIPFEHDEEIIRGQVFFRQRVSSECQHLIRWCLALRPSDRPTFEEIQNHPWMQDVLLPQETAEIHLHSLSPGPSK

In the case of `COc1cc(-c2cc(-c3cccc(O)c3)cnc2N)cc(OC)c1OC` [K02288, 3-[6-amino-5-(3,4,5-trimethoxy-phenyl)-pyridin-3-yl]-phenol], the inhibition at 0.1 µM in experiment [1] was -2%; in experiment [2], 1.1%; in experiment [3], -2%; in experiment [4], 0.2%; in experiment [5], 1%. For the same compound, the inhibition at 1 µM turned out to be 1.2% in experiment [1]; 4.1% in experiment [2]; 2.3% in experiment [3]; 1.5% in experiment [4]; 5% in experiment [5].
Turning to `c1ccc2c(-c3cnn4cc(-c5ccc(N6CCNCC6)cc5)cnc34)ccnc2c1` [LDN-193189], the inhibition at 0.1 µM in experiment [1] is 0.2%; in experiment [2], 16%; in experiment [3] it was 0.8%; in experiment [4] it was -1%; in experiment [5] it was 1.7%. Besides, the inhibition at 1 µM in experiment [1] is 1.5%; in experiment [2] it was 56%; in experiment [3], 3.4%; in experiment [4] it was -1%; in experiment [5], 9.3%.
